Values after ≈ are worked out from the molar mass of the structure shown.
Assays:
[1] = Oral bioavailability in rat; format: ADME, organism-based; details: in vivo
[2] = molecular target: T1, Phosphatidylinositol 4,5-bisphosphate 3-kinase catalytic subunit delta isoform (Homo sapiens, UniProt O00329); test: Inhibition of PI3Kdelta (unknown origin)
T1 sequence (O00329 whole entry): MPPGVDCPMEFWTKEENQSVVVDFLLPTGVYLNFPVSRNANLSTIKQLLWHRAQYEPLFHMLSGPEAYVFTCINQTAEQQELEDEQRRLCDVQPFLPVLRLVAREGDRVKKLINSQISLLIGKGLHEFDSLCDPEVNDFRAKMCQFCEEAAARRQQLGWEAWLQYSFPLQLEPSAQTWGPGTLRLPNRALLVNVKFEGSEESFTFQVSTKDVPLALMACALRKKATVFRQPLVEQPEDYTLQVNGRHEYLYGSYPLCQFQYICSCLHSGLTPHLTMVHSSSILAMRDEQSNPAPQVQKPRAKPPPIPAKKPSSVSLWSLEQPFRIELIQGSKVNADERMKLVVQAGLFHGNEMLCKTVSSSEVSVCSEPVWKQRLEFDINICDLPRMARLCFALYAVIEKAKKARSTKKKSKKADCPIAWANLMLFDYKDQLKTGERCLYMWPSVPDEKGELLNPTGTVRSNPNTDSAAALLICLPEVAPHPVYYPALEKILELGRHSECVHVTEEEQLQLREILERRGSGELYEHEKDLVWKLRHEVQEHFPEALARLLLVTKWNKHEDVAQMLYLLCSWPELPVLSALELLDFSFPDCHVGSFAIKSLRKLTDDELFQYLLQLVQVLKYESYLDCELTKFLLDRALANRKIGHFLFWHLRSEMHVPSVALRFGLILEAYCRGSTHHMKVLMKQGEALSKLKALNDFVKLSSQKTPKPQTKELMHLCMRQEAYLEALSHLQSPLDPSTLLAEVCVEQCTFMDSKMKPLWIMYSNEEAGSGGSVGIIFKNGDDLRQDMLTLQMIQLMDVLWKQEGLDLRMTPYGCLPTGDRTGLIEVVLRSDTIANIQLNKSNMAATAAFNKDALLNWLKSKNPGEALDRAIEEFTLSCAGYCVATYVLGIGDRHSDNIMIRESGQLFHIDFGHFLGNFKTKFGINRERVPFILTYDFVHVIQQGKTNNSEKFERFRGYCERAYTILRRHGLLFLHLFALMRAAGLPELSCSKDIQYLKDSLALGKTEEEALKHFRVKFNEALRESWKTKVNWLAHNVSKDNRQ

[3] = Aqueous solubility of the compound at pH 7.4; format: physicochemical
[4] = molecular target: Phosphatidylinositol 4,5-bisphosphate 3-kinase catalytic subunit gamma isoform (Homo sapiens, UniProt P48736); test: Inhibition of PI3Kgamma (unknown origin)
Sequence of Phosphatidylinositol 4,5-bisphosphate 3-kinase catalytic subunit gamma isoform (P48736 whole entry, canonical isoform): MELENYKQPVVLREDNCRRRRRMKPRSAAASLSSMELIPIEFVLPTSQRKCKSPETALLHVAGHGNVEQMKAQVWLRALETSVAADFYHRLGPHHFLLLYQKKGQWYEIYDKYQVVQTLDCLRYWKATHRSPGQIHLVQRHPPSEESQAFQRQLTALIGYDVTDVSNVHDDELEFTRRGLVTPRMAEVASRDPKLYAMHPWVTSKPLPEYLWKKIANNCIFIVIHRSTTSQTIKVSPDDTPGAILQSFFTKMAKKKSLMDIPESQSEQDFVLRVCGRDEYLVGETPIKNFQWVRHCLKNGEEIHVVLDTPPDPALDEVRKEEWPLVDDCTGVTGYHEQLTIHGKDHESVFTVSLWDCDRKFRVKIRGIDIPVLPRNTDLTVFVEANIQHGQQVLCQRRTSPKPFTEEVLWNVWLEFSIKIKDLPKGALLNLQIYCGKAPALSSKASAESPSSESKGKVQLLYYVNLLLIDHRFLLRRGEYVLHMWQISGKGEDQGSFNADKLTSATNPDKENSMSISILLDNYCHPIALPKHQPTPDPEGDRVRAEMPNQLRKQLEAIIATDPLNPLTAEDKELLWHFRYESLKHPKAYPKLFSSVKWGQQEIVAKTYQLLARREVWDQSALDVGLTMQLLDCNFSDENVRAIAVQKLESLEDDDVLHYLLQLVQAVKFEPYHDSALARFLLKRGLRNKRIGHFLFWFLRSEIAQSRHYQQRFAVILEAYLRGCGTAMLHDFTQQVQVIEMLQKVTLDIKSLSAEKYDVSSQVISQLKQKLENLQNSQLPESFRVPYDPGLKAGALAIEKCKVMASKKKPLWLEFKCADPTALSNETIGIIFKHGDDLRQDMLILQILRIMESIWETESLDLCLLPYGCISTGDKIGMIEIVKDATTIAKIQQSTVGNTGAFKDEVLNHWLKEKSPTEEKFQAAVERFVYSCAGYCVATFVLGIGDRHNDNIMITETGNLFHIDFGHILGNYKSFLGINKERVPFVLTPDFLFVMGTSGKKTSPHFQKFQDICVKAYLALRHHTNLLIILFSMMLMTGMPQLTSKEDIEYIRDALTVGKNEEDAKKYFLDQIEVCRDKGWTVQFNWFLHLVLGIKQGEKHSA

[5] = molecular target: T2, Phosphatidylinositol 4,5-bisphosphate 3-kinase catalytic subunit beta isoform (Homo sapiens, UniProt P42338); test: Inhibition of PI3Kbeta (unknown origin)
T2 sequence (P42338 whole entry, canonical isoform): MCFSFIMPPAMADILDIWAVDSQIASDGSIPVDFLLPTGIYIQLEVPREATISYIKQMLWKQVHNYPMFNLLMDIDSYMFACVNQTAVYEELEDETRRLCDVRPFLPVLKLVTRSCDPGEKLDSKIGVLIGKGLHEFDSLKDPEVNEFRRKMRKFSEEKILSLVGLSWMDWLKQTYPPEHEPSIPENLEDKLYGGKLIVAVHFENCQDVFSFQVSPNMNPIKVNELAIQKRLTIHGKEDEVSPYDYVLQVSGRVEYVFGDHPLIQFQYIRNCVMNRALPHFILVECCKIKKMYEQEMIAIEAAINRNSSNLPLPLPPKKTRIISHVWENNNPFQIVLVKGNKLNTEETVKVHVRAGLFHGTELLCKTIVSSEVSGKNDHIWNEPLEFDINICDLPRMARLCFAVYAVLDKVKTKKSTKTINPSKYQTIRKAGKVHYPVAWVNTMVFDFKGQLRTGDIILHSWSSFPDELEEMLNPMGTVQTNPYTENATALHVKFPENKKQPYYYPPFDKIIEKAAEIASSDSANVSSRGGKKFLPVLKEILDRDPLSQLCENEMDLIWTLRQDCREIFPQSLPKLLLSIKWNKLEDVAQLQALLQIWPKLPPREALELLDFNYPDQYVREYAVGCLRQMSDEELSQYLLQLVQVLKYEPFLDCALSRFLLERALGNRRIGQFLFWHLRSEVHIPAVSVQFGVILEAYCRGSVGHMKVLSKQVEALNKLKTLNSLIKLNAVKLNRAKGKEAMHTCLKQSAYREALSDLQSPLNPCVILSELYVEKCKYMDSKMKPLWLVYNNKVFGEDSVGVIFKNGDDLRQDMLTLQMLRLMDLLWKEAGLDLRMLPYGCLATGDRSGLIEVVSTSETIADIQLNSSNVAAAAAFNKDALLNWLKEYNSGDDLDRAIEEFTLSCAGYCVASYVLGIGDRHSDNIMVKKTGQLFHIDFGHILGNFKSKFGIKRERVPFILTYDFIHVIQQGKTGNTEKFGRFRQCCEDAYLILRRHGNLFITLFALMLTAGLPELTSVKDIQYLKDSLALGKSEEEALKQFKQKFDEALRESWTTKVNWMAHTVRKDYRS

[6] = molecular target: Phosphatidylinositol 4,5-bisphosphate 3-kinase catalytic subunit alpha isoform (Homo sapiens, UniProt P42336); test: Inhibition of PI3Kalpha (unknown origin)
Sequence of Phosphatidylinositol 4,5-bisphosphate 3-kinase catalytic subunit alpha isoform (P42336 whole entry, canonical isoform): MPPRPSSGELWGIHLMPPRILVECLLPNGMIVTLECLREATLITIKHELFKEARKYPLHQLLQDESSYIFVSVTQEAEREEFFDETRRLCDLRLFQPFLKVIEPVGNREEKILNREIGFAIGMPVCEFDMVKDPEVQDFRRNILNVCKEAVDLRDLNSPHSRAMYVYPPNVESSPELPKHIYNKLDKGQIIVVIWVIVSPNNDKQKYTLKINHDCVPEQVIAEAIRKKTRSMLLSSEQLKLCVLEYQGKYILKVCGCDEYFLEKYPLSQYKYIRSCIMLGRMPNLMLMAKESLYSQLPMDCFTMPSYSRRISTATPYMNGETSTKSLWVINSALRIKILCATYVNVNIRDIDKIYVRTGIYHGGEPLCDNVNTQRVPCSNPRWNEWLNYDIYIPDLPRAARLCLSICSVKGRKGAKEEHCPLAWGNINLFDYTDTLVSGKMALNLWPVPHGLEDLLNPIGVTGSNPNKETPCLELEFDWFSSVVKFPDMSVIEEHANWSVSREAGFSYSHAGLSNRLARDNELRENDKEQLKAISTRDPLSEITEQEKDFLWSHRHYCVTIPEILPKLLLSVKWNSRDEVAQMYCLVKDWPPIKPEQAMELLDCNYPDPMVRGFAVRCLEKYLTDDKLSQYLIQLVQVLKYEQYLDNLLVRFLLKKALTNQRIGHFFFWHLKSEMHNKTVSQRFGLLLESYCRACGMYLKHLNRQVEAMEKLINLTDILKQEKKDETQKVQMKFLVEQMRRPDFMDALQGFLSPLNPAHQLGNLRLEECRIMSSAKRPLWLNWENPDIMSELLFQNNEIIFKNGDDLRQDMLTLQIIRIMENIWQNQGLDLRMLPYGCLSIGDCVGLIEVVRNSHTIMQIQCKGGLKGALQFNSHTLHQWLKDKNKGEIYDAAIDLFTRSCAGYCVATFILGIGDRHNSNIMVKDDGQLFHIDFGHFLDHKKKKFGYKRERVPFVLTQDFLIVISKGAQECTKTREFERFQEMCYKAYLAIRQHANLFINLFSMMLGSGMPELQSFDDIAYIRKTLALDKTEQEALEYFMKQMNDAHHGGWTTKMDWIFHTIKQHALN

[7] = Inhibition of PI3K in human PBMC assessed as reduction in IFNgamma secretion
[8] = Inhibition of PI3K in human lung parenchyma cells assessed as reduction in IFNgamma secretion
[9] = Inhibition of PI3K in human lung parenchyma cells assessed as reduction in IL2 secretion
Rattus norvegicus = organism: Rattus norvegicus; test: Antiinflammatory activity in Brown Norway rat acute OVA model of Th2 driven lung inflammation assessed as protection against eosinophil recruitment; format: functional
[10] = molecular target: T2, Phosphatidylinositol 4,5-bisphosphate 3-kinase catalytic subunit beta isoform; test: Inhibition of N-terminal His-tagged truncated human PI3Kbeta (deltaN 1 to 108 residues) after 2 hrs in presence of [33P]ATP by BetaPlate liquid scintillation counting analysis

Structure (SMILES): CC(C)N1CCN(Cc2cnc(-c3cc(-c4cccc5[nH]ccc45)cc4[nH]ncc34)o2)CC1 [NEMIRALISIB]
- bioavailability [1]: < 2%

Structure (SMILES): Cc1nnc2n1[C@@H]1CCN(Cc3cc4nc(-c5cccc6[nH]ccc56)nc(N5CCOCC5)c4s3)C[C@@H]1CC2
- IC50 [2]: 0.794 nM
- solubility [3]: 20 µg/mL (≈ 37 µM)

Structure (SMILES): Cc1nc(C(=O)Nc2cc(-c3cnc(Cl)c(NS(=O)(=O)c4ccccc4)c3)cc3[nH]ncc23)cs1
- IC50 [4]: 50.1 nM
- IC50 [2]: 2 nM
- IC50 [5]: 1000 nM
- IC50 [6]: 316 nM

Structure (SMILES): COc1ncc(-c2cc(-c3ncc(CN4C[C@@H](C)O[C@@H](C)C4)o3)c3cn[nH]c3c2)cc1NS(C)(=O)=O
- Ki [4]: 501 nM
- pKi [7]: 9.2
- IC50 [8]: 2 nM
- IC50 [9]: 3.16 nM
- Ki [5]: 631 nM
- Ki [6]: 501 nM
- ED50 (Rattus norvegicus): 0.035 mg/kg

Structure (SMILES): O=C(NC1=Nc2ccccc2C2=NCCN12)c1cccnc1
- IC50 [10]: 1 nM

— ChEMBL document CHEMBL4393651, “Class 1 PI3K Clinical Candidates and Recent Inhibitor Design Strategies: A Medicinal Chemistry Perspective” (J Med Chem, 2019)
